Measured values taken from ChEMBL document CHEMBL5465560, “Selectivity Literature for EUbOPEN Chemogenomic Library” (2024).

How the values were obtained:
[1] = biological target: Cyclin-dependent kinase 2 (Homo sapiens, UniProt P24941); experiment: Selectivity interaction (KinomeScan (DiscoverX)) EUB0000666a CDK2; settings: at 10 µM
[2] = biological target: Non-receptor tyrosine-protein kinase TYK2 (Homo sapiens, UniProt P29597); experiment: Selectivity interaction (KinomeScan (DiscoverX)) EUB0000666a TYK2; settings: at 10 µM
Chain of Non-receptor tyrosine-protein kinase TYK2 (P29597 whole entry): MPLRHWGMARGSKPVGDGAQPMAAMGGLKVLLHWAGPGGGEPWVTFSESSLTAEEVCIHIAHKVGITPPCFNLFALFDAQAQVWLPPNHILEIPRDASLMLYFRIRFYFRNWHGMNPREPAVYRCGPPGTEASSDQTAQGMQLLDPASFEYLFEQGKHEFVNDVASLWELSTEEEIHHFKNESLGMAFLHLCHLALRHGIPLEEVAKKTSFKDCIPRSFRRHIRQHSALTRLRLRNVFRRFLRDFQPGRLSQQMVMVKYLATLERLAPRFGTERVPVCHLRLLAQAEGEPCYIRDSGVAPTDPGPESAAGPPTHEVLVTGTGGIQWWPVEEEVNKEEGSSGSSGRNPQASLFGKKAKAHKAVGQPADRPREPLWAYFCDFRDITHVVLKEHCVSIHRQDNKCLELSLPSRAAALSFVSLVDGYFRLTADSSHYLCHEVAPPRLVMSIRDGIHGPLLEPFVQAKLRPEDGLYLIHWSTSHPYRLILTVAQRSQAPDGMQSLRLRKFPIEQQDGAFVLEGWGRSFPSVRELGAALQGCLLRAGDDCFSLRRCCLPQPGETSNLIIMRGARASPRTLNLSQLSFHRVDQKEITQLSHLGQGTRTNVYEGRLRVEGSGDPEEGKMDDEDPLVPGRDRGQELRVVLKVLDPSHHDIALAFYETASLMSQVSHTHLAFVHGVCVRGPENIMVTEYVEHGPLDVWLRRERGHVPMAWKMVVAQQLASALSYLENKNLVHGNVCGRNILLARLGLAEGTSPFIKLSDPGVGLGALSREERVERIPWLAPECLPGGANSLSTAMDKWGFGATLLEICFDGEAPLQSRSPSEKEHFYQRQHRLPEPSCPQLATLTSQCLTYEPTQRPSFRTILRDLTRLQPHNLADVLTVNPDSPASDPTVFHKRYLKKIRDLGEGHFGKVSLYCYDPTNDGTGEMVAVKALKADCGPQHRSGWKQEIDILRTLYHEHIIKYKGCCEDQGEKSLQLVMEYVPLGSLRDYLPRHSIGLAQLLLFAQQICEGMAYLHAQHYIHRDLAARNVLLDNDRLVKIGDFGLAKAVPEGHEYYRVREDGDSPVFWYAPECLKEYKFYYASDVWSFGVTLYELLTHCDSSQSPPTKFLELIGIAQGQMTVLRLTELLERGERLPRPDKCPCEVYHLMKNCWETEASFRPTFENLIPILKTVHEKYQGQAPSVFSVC

[3] = biological target: Receptor-interacting serine/threonine-protein kinase 2 (Homo sapiens, UniProt O43353); experiment: Selectivity interaction (KinomeScan (DiscoverX)) EUB0001079a RIPK2; settings: at 1 µM
Chain of Receptor-interacting serine/threonine-protein kinase 2 (O43353 whole entry): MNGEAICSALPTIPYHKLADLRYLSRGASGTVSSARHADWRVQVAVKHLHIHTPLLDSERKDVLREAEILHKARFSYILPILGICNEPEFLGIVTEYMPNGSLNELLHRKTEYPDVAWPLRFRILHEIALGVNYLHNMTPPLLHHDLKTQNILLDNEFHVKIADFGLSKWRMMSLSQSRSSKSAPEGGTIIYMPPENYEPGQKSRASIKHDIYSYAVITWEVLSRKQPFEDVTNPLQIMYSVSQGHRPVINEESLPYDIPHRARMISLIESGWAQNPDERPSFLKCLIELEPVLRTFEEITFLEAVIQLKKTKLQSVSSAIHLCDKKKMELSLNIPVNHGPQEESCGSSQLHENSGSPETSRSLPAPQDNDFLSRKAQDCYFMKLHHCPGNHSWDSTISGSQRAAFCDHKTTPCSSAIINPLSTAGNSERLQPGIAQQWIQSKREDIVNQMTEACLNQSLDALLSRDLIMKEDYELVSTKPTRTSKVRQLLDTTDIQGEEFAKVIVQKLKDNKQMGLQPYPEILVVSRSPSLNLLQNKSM

[4] = biological target: Death-associated protein kinase 3 (Homo sapiens) (UniProt O43293); experiment: Selectivity interaction (Kinase panel (DSF assay)) EUB0001558a DAPK3
Chain of Death-associated protein kinase 3 (Homo sapiens) (O43293 whole entry, looked up): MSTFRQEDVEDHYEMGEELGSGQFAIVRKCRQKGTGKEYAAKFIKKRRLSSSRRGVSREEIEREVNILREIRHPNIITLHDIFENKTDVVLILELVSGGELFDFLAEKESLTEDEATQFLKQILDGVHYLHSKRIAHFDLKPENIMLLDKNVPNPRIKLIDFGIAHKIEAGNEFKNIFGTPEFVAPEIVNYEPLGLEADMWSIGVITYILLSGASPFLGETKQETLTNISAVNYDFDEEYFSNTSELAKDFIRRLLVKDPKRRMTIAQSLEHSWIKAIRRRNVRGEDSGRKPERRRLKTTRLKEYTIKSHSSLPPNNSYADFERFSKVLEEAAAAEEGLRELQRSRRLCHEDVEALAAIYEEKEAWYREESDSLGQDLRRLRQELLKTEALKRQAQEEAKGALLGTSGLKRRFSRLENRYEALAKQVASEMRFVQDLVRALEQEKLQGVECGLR

[5] = biological target: T1, Serine/threonine-protein kinase D2 (Homo sapiens) (UniProt Q9BZL6); settings: at 10 µM
T1 sequence (whole entry): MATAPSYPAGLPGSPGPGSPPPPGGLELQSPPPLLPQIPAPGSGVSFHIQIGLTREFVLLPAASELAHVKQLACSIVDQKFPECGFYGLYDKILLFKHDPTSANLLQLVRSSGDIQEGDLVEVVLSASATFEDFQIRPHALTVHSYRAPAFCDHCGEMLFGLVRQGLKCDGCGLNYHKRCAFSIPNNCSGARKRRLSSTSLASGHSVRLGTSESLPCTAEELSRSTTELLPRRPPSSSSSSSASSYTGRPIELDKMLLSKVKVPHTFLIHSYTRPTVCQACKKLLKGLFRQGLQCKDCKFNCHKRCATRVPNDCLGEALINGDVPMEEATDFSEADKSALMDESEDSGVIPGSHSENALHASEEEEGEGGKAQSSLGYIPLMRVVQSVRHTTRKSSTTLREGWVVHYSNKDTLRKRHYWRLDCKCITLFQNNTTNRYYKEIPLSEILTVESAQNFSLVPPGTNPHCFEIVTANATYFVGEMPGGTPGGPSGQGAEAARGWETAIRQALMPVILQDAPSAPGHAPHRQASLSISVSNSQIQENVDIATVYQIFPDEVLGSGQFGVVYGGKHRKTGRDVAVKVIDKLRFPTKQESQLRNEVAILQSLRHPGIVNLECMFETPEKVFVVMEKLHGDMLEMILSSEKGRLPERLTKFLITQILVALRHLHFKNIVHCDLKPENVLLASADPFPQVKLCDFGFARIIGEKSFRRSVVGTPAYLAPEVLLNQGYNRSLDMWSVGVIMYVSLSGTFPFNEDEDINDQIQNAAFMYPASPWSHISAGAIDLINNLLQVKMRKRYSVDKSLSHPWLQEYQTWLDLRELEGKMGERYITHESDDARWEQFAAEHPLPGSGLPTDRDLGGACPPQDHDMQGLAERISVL

[6] = biological target: Rho-associated protein kinase 2 (Homo sapiens, UniProt O75116); experiment: Selectivity interaction (KinomeScan (DiscoverX)) EUB0000092b ROCK2; settings: at 10 µM
[7] = biological target: Tyrosine-protein kinase HCK (Homo sapiens) (UniProt P08631); experiment: Selectivity interaction (Ambit KINOMEscan and KiNATiv profiling in Jurkat cells) EUB0000090b HCK; assay type: cell-based; settings: at 1 µM
Chain of Tyrosine-protein kinase HCK (Homo sapiens) (P08631 2-526 limits assumed): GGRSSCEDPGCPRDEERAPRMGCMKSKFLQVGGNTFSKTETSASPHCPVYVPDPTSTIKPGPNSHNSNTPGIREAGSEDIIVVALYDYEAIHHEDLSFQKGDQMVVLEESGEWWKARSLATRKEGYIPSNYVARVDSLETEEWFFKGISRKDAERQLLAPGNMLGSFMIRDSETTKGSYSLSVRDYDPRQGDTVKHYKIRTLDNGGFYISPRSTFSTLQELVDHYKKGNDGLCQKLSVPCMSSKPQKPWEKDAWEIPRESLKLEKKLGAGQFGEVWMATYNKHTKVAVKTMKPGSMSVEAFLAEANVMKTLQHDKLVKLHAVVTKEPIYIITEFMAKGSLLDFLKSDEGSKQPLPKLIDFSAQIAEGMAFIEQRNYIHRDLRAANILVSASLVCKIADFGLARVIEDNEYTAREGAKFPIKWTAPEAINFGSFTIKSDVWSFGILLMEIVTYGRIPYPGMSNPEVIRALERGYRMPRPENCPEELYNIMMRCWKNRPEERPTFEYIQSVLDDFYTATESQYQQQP

[8] = biological target: T2, NUAK family SNF1-like kinase 1 (Homo sapiens) (UniProt O60285); experiment: Selectivity interaction (KinomeScan (DiscoverX)) EUB0000618a NUAK1; settings: at 10 µM
T2 sequence (whole entry): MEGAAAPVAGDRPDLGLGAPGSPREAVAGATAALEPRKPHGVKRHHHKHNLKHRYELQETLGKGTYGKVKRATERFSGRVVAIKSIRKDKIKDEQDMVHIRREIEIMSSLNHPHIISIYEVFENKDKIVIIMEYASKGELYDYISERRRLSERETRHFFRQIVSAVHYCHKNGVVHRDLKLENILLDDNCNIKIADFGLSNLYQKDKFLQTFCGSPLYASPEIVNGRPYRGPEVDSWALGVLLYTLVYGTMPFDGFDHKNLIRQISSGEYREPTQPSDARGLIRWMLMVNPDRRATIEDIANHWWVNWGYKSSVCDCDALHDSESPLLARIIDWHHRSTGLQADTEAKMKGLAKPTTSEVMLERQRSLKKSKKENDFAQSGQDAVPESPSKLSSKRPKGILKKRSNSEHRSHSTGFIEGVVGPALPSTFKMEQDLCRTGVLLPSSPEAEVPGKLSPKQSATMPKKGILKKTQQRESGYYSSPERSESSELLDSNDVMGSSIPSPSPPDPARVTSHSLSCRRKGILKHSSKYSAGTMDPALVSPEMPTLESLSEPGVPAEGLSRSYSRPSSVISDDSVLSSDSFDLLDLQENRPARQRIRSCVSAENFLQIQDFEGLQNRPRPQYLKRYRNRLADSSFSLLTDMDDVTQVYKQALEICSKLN

[9] = biological target: Casein kinase II subunit alpha (Homo sapiens, UniProt P68400); experiment: Selectivity interaction (KinomeScan (DiscoverX)) EUB0000618a CSNK2A1; settings: at 10 µM
Chain of Casein kinase II subunit alpha (P68400 whole entry, looked up): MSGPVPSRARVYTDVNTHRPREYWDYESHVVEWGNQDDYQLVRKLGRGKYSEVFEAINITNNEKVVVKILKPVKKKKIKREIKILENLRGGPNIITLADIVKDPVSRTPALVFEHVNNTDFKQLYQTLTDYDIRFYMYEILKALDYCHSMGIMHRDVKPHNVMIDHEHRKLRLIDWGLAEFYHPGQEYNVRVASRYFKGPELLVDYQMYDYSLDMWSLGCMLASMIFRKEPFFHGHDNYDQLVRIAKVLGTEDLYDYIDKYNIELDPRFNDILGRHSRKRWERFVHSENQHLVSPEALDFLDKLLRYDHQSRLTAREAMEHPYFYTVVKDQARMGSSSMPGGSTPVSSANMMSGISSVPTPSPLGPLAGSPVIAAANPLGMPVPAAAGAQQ

[10] = biological target: STE20-like serine/threonine-protein kinase (Homo sapiens, UniProt Q9H2G2); settings: at 10 µM
[11] = biological target: Mitogen-activated protein kinase 8 (Homo sapiens, UniProt P45983); experiment: Selectivity interaction (KinomeScan (DiscoverX)) EUB0001619a MAPK8; settings: at 1 µM
Chain of Mitogen-activated protein kinase 8 (P45983 whole entry): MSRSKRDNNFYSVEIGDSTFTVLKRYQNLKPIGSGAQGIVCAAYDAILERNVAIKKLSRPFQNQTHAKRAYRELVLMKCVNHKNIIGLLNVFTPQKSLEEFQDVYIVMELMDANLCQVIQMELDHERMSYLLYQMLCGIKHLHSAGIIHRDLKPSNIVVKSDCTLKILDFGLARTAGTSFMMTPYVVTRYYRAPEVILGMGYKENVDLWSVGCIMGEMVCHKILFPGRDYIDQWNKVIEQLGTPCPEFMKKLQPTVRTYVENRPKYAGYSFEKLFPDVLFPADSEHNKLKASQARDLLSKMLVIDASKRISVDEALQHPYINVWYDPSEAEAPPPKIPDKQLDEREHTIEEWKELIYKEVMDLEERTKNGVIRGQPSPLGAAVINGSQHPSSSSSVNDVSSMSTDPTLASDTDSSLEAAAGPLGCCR

[12] = biological target: CDK4/Cyclin D3 (Homo sapiens) (UniProt P11802+P30281); experiment: (§1) Selectivity interaction (ProQinase) EUB0000171b CDK4; assay type: protein-complex assay
[13] = biological target: Cyclin-dependent kinase 4/cyclin D1 (Homo sapiens) (UniProt P11802+P24385); experiment: as §1; assay type: protein-complex assay
[14] = biological target: Tau-tubulin kinase 1 (Homo sapiens) (UniProt Q5TCY1); experiment: Selectivity interaction (ProQinase) EUB0000171b TTBK1
Chain of Tau-tubulin kinase 1 (Homo sapiens) (Q5TCY1 whole entry): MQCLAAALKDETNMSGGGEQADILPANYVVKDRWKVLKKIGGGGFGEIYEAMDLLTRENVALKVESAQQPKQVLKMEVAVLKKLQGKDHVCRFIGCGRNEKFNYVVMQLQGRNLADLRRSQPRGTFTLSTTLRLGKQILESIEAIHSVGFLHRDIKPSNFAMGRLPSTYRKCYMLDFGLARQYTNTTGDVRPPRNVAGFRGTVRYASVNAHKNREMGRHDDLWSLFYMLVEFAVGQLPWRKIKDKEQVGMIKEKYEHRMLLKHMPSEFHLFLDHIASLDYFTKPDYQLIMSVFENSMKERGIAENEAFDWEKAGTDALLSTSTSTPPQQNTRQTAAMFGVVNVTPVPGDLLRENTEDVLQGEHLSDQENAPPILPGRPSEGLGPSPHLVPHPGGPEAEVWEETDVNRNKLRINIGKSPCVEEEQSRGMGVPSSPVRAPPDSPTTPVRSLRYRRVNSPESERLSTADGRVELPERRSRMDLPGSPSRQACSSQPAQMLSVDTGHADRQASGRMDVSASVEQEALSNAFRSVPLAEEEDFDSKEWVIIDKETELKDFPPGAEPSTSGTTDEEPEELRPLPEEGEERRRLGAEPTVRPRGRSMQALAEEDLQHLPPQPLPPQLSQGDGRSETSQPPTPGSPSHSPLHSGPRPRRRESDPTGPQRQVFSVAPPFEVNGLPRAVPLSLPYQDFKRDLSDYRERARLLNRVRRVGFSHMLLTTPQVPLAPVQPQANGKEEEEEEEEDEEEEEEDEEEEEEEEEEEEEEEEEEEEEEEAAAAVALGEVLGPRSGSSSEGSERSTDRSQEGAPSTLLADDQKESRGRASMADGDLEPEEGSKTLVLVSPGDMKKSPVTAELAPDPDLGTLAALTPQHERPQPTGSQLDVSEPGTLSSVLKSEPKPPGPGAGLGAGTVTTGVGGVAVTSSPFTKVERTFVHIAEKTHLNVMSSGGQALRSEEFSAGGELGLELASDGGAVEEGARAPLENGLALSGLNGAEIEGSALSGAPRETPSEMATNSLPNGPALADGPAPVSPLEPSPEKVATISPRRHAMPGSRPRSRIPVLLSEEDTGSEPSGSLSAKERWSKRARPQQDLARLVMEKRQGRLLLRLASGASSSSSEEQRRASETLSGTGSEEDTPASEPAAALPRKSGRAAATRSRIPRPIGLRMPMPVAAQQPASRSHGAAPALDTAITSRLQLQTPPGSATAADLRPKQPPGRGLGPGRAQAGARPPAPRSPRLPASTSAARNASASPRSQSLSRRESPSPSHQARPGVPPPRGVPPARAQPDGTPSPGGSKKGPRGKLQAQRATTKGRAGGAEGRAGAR

[15] = biological target: Dual specificity tyrosine-phosphorylation-regulated kinase 1A (Homo sapiens, UniProt Q13627); experiment: Selectivity interaction (ProQinase) EUB0000171b DYRK1A

Compound `O=C(NOC[C@H](O)CO)c1ccc(F)c(F)c1Nc1ccc(I)cc1F` has a % of control [1] of 91% and a % of control [2] of 100%.
For `Nc1cnc(N2CCc3cc(S(=O)(=O)Nc4c(F)cc(Cl)cc4F)cc(N4CCCC4=O)c32)nc1` [TP-020n], the % of control [3] was 53%.
For `CC(C)(O)[C@H](F)CN1Cc2cc(NC(=O)c3cnn4cccnc34)c(N3CCOCC3)cc2C1=O`, the dTM [4] was 1.8 K.
`CCN(CC)CCCCNc1ncc2cc(-c3cc(OC)cc(OC)c3)c(NC(=O)NC(C)(C)C)nc2n1` was tested, and the % of control [5] was 100%.
In the case of `CCC(=O)N1CCN(c2ccc(-n3c(=O)ccc4cnc5ccc(-c6cnc7ccccc7c6)cc5c43)cc2C(F)(F)F)CC1`, the % of control [6] is reported as 50%.
In the case of `CN(C)C/C=C/C(=O)Nc1ccc(C(=O)N2CCCC(Nc3ncc(Cl)c(-c4c[nH]c5ccccc45)n3)C2)cc1` (centres undefined), the % of control [7] is reported as 83%.
`O[C@H]1CC[C@H](Nc2ncc3nc(Nc4c(F)cc(F)cc4F)n([C@H]4CCOC4)c3n2)CC1` gave a % of control [8] of 97% and a % of control [9] of 100%.
With `Cc1cc([C@@H](C)Nc2ccccc2C(=O)O)c2nc(N3CCOCC3)cc(=O)n2c1` [AZD-6482] the % of control [10] was 100%.
In the case of `N#Cc1cccc(-c2c[nH]c3ncnc(N4CCOCC4)c23)c1`, the % of control [11] is reported as 62%.
Work on `C=CC(=O)Nc1cccc(C(=O)Nc2ccc(Nc3cc(-c4[nH]c(SC)nc4C)ccn3)cc2)c1` yielded a % of control ([12]; at 1 µM) of 92%, a % of control ([12]; at 5 µM) of 83% and a % of control ([13]; at 1 µM) of 94%. It also gave a % of control ([13]; at 5 µM) of 76%, a % of control ([14]; at 1 µM) of 102% and a % of control ([14]; at 5 µM) of 106%. It also gave a % of control ([15]; at 1 µM) of 92% and a % of control ([15]; at 5 µM) of 70%.
